Assay results reported in US9115176B2, “Compounds, use thereof in cosmetic and cosmeceutic applications, and compositions comprising same” (Lucas Meyer Cosmetics Canada Inc., priority 2007, dated 2015).
* marks the point of attachment. Hexanoyl = CCCCCC(=O)*

Key:
[1] = test system: Normal human dermal fibroblasts; assay: Neosynthesis of laminin in normal human dermal fibroblasts (E.I.A. kit, normalised to Bradford protein); type: cell-based; settings: for Laminins (ng/μg proteins) % increase: 48 hours incubation, untreated control = 100.0%
Protocol: Normal human dermal fibroblasts were incubated for 48 hours in absence or presence of Transforming Growth Factor (TGF)-β at 50 ng/ml or of peptide I at two concentrations, namely 10^−6M and 10^−7M. At the end of the incubation period, laminins were quantified with the E.I.A. Enzyme Immuno Assay kit. Proteins contained in the cell lysate were also quantified by spectrocolorimetry according to the Bradford method. TGF-β and peptide I were tested in dose-response on the fibroblasts.
The data presented in Table I below represent the relative increase in laminin synthesis in a human dermal fibroblast culture medium in monolayers in the presence of peptide I, or TGF-β, as compared to untreated cells (control).

laminin-5 = assay: Synthesis of laminin-5 in human skin fragments treated with dermal corticosteroid (immunohistochemistry, semi-quantitative score); type: cell-based
Protocol: (§1) Fragments of normal human skin were treated or not in the presence of a dermal corticosteroid at 0.05% w/v or peptide I at a concentration of 10^−7M. The skin samples were then frozen at day 3 for an immunohistochemical analysis of laminin-5. The immunodetection was performed with a 3 coats indirect immunoperoxidase method (BC Peroxidase kit, Vector laboratories) using a primary antibody specific to laminin-5.

crow's feet = assay: In vivo anti-wrinkle activity on crow's feet (photographs, silicone replicas, fringe projection); design: species or system human; settings: 5 ppm in Table VI formulation, topical twice daily, after 28 and 56 days, versus placebo
Protocol: Peptide I was tested in the formulation described in Table VI below versus its placebo on 30 subjects (+10%) selected according to the inclusion/non inclusion criteria. [table] The study lasted 56 days following the first application. Volunteers applied the product twice daily on a randomised crow's foot of the temple. The study was a simple blind test, comparing the results obtained at one treated area following application of the composition comprising peptide I with those obtained at another treated area with the placebo. The evaluation of the efficacy of the formulation comprising peptide I was performed using: (a) illustrative digital photographs of the crow's feet; and (b) Silicone rubber replicas of the crow's feet (analysis of the wrinkles and of the skin network by fringe projection). In vitro fringe projection—Topometry—Wrinkles. […] All the silicone rubber replicas were analysed by fringe projection to observe the cutaneous relief. The following parameters were measured: (a) SPa: Average roughness; (b) SPq: Average dispersal of the variations of the relief; (c) SPt: Maximum amplitude of the relief and (d) SDev: Developed Surface. […] All the replicas were analysed by fringe projection to observe the skin network analysis. The following parameters were measured: (a) SRa: Average roughness (mm); and (b) SRq: Average with regards to the average quadratic (mm).

collagen VII = assay: Synthesis of collagen VII in human skin fragments treated with dermal corticosteroid (immunohistochemistry, semi-quantitative score); type: cell-based
Protocol: as §1, with “w/v and” for “w/v or”, “10^−7M. Dermal corticosteroid are known to alter cell metabolism.” for “10^−7M.”, “of collagen VII.” for “of laminin-5.”, “method (ABC” for “method (BC”, “to collagen VII.” for “to laminin-5.”

[2] = skin + corticosteroids 0.05% w/v + peptide I 10^−7M, day 3

Row | Substance | Laminins (ng/μg proteins) % increase ([1]; 50 ng/ml) [%] | Laminins (ng/μg proteins) % increase ([1]; 10^−6M) [%] | Laminins (ng/μg proteins) % increase ([1]; 10^−7M) [%] | Effect on laminin synthesis in human dermal fibroblast cells (in words) ([1]; summary of Table I) | Laminin-5 score, relative change (laminin-5; [2]) | Laminin-5 labelling score (laminin-5; skin + corticosteroids 0.05% w/v + peptide I 10^−7M, day 3, control skin 2.1 ± 1.3) | Effect on synthesis of laminin-5 in a human skin model (in words) (laminin-5; summary of Table V) | Crow's feet skin network roughness (in words) (crow's feet) | Reduction of the wrinkles (crow's feet roughness, in words) (crow's feet) | Collagen VII score, relative change (collagen VII; [2]) | Collagen VII labelling score (collagen VII; skin + corticosteroids 0.05% w/v + peptide I 10^−7M, day 3, control skin 1.9 ± 0.8) | Effect on synthesis of collagen VII in a human skin model (in words) (collagen VII; summary of Table III)
1 | TGF-β [reference compound] | 109.9 |  |  |  |  |  |  |  |  |  |  | 
2 | CH3—(CH2)4—CO-Lys-Gly-His-Lys-NH2 (Hexanoyl-KGHK-NH2; SMILES CCCCCC(=O)N[C@@H](CCCCN)C(=O)NCC(=O)N[C@@H](Cc1c[nH]cn1)C(=O)N[C@@H](CCCCN)C(N)=O) [Peptide I] |  | 125.8 | 125.9 | increases laminin synthesis | +49% | 2.2 ± 0.8 | increases the synthesis of laminin-5 | reduction of the crow's feet skin network roughness | potent efficacy | +34% | 2.25 ± 0.2 | increases the synthesis of collagen VII
